Data reported in ChEMBL document CHEMBL1777673, “Synthesis and biological evaluation of 3-alkyl-dihydrotetrabenazine derivatives as vesicular monoamine transporter-2 (VMAT2) ligands” (Bioorg Med Chem Lett, 2011).

Columns and labels:
Nucleic Acid = assay: Ratio of drug uptake in striatum to cerebellum in ICR mouse at 10 to 20 uCi, iv by gamma counting; format: ADME, organism-based; settings: in vivo
[1] = target: T1, Synaptic vesicular amine transporter (Rattus norvegicus, UniProt Q01827); assay: Displacement of [18F](+)-FP-DTBZ from VMAT2 in rat striatal homogenate after 60 mins by gamma counting
[2] = target: T1, Synaptic vesicular amine transporter; assay: Displacement of [125I]-iodovinyl-TBZ from VMAT2 in rat striatal homogenate after 60 mins by gamma counting

T1 sequence (Q01827 whole entry): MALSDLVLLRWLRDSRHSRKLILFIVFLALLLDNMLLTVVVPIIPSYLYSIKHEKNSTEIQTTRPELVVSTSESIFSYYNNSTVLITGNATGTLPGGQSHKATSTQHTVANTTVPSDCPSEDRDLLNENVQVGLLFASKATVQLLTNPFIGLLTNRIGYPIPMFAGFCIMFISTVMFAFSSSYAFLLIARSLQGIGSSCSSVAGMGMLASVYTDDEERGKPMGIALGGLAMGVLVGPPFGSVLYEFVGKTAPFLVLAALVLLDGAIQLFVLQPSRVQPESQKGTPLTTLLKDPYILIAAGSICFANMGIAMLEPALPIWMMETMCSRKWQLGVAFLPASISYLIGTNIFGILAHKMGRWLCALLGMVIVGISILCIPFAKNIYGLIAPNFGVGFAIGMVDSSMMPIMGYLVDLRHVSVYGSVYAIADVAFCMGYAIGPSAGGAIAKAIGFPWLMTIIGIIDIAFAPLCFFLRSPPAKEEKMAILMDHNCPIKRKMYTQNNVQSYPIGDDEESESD

Structure (SMILES) | Ki [2] | further results
COc1cc2c(cc1OCCC[18F])CCN1C[C@@H](CC(C)C)[C@H](O)C[C@H]21 [FLORBENAZINE F 18] | – | Ratio (Nucleic Acid): 4.51
C/C=C/C1CN2CCc3cc(OCCCF)c(OC)cc3C2C[C@H]1O (mixture of isomers) | – | Ki [1]: 22.4 nM
C=CCC1CN2CCc3cc(OC)c(OC)cc3C2C[C@H]1O (mixture of isomers) | – | Ki [1]: 253 nM
COc1cc2c(cc1OCCCF)CCN1C[C@@H](CC(C)C)[C@H](O)C[C@H]21 [FLORBENAZINE] | 0.1 nM | –

Second part, led by results:

Ki [2] | Structure (SMILES) | further results
227 nM | COc1cc2c(cc1OC)C1C[C@@H](O)C(CC3CCCC3)CN1CC2 (mixture of isomers) | –
26.9 nM | COc1cc2c(cc1OC)C1C[C@@H](O)C(CC3CCC3)CN1CC2 (mixture of isomers) | –
137 nM | COc1cc2c(cc1OC)C1C[C@@H](O)C(CC3CCCCC3)CN1CC2 (mixture of isomers) | –
